Data as given in ChEMBL document CHEMBL1201862, “PubChem BioAssay data set” (2004).
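Each compound was tested at five concentrations against cells in 96-well plates for 48 hours. GI50 is the concentration that inhibits growth by half.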 Activity calls are given as the source filed them. Cut-off read from the data, not from the text of the source: active = GI50 up to about 1.1 µM and inactive = higher.

Experiments:
Assay in all cases: NCI tumour cell line growth inhibition, 48 h
[1] = system: TK-10
[2] = system: OVCAR-5
[3] = system: HOP-62
[4] = system: K562
[5] = system: HOP-92
[6] = system: SNB-19
[7] = system: NCI-H226
[8] = system: ACHN
[9] = system: RPMI-8226
[10] = system: NCI-H522
[11] = system: UACC-62
[12] = system: Malme-3M
[13] = system: MOLT-4
[14] = system: UO-31
[15] = system: SK-MEL-2
[16] = system: SK-OV-3
[17] = system: SF-295
[18] = system: OVCAR-8
[19] = system: CCRF-CEM
[20] = system: SNB-75

Measured: GI50

CCCCCC(/C=C/c1ncccc1OCCCCCC(=O)O)=N\NC1=NCCN1
inactive: [1] > 100 µM | [2] > 100 µM | [3] > 100 µM | [4] 60.3 µM | [5] 91 µM | [6] > 100 µM | [7] > 100 µM | [8] > 100 µM | [9] 29.4 µM | [10] 50.8 µM | [11] 44.1 µM | [12] > 100 µM | [13] 62.7 µM | [14] > 100 µM | [15] 48.9 µM | [16] > 100 µM | [17] > 100 µM | [18] > 100 µM | [19] 53.6 µM | [20] 40.2 µM

CC(=O)Nc1ccc(C(=O)NN2C(=O)C(Cl)C2c2cccc([N+](=O)[O-])c2)cc1 (stereo not given)
inactive: [1] > 100 µM | [2] > 100 µM | [3] > 100 µM | [4] > 100 µM | [5] > 100 µM | [6] > 100 µM | [7] > 100 µM | [8] > 100 µM | [9] > 100 µM | [10] > 100 µM | [11] > 100 µM | [12] > 100 µM | [13] > 100 µM | [14] > 100 µM | [15] > 100 µM | [16] > 100 µM | [17] > 100 µM | [18] > 100 µM | [19] > 100 µM | [20] > 100 µM

CCOC(=O)c1c(-c2cccc(Cl)c2)c(C(=O)OC)c(C)c2sc(C=O)nc12
inactive: [1] 29.3 µM | [2] 17.5 µM | [3] 13.6 µM | [4] 27.5 µM | [5] 15.7 µM | [6] 98.9 µM | [7] 21.8 µM | [8] 16.8 µM | [9] 14.1 µM | [10] 16 µM | [11] 15.8 µM | [12] 19.3 µM | [13] 12.8 µM | [14] 17.8 µM | [15] 16.8 µM | [16] 26.7 µM | [17] 15.8 µM | [18] 19.8 µM | [19] 12.8 µM | [20] 21.6 µM
